Data published in US20250090659A1, “COMBINATION THERAPY WITH AN ANTI-CD19 ANTIBODY AND PARSACLISIB” (Incyte Corporation, priority 2020, published 2025).

What was measured:
Pfeiffer cells = assay: Cell proliferation (Cell titer Glo), Pfeiffer; type: cell-based; conditions: no NK cells, 24, 48 and 72 hours
Method: (§1) Besides ADCC cytotoxicity, effects of tafasitamab and parsaclisib on cell proliferation were also evaluated by treating target cells with matrix dosing of tafasitamab and parsaclisib in the absence of NK cells. After 24 hours, 48 hours, and 72 hours, proliferation was assessed by adding 100 ul of Cell titer Glo to wells containing 100 ul of treated cells in duplicates. The data was presented as RLUs, which is in proportion to cell proliferation.

WSU-NHL cells = assay: Cell proliferation (Cell titer Glo), WSU-NHL; type: cell-based; conditions: no NK cells, 24, 48 and 72 hours
Method: as §1

SuDHL4 cells = assay: Cell proliferation (Cell titer Glo), SuDHL4; type: cell-based; conditions: no NK cells, 24, 48 and 72 hours
Method: as §1

SuDHL6 cells = assay: Cell proliferation (Cell titer Glo), SuDHL6; type: cell-based; conditions: no NK cells, 24, 48 and 72 hours
Method: as §1

[1] = system: A20 murine lymphoma cells; assay: In vivo efficacy in A20 mouse lymphoma model; design: species or system Balb/c mice
Method: Female Balb/c mice were subcutaneously inoculated with 5×10^5 A20 murine lymphoma cells to form flank tumors. When tumors reached approximately 100 mm^3, mice were randomized into 4 groups for dosing (N=10 mice/group). Dosing groups were as follows: (1) Vehicle (5% dimethyl acetimde+95% methylcellulose)-administered by mouth twice a day; (2) Murine anti-CD19 antibody (12014B35 from Absolute Antibody)—[…] administered intraperitoneally once weekly; (3) Parsaclisib (INCB050465)—3 mg/kg administered by mouth twice a day; and (4) Murine anti-CD19 antibody+Parsaclisib.
Tumor volumes were measured twice weekly. The study concluded when mean tumor volumes of each group reached 2000 mm^3. All doses were tolerated as assessed by body weights. Percent tumor growth inhibition (TGI %) was calculated by: [1-(mean tumor volume of test group)/(mean tumor volume of vehicle group)]×100. Tumor growth delay (TGD) was determined by the number of days needed (approximate) after dosing ceases for mean tumor volumes of dosed groups to reach the final mean tumor volume of the vehicle group.

Mec1 cells = assay: ADCC assay with NK cells, Mec1 target cells; type: cell-based; conditions: Mec1 cells pre-treated 7 days with parsaclisib 0.3 to 20 μM or DMSO, E:T 2:1, tafasitamab 1:10 dilutions from 1 μg/ml, 4 hours, dead target cells by flow cytometry
Method: (§2) The cytotoxicity of tafasitamab and parsaclisib (INCB050465) alone and in combination was tested in the following cells lines: MEC-1 (CLL), MEC-2 (CLL), JVM-2 (Mantle Cell Lymphoma), WSU-NHL, Pfeiffer, Su-DHL4, and Su-DHL6.
(§3) Target cells were pre-treated for 7 days with various doses of parsaclisib in the range of 0.3 to 20 μM (parsaclisib alone group and tafasitamab and parsaclisib combination group). The tafasitamab alone group was pre-treated with DMSO for the same period of time.
NK cells were isolated from human primary PBMC from multiple donors using EasySep™ Human NK Cell Isolation Kit (STEMCELL Technologies) and frozen. NK cells were thawed and cultured overnight in medium supplemented with 2 IU/ml of IL-2 (Peprotech) 24 hours before the ADCC assay.
The following controls were used in all experiments: (i) Target cells+NK cells without antibodies; (ii) Target cells+NK cells+huIgG1 isotype control antibody; and (iii) Target cells alone. […]
(§4) The cytotoxicity of tafasitamab alone was evaluated following the same procedure in cells that were treated with DMSO. […] After 4 hours incubation, cells were stained with Zombie Violet fixable cell viability dye (Biolegend 423114) and measured by flow cytometry to evaluate cell toxicity. […]

JVM2 cells [2] = assay: ADCC assay with NK cells, JVM2 target cells; type: cell-based; conditions: JVM2 cells pre-treated 7 days with parsaclisib 0.3 to 20 μM or DMSO, E:T 2:1, tafasitamab 1:10 dilutions from 1 μg/ml, 4 hours, dead target cells by flow cytometry
Method: as §2, §3
NK cells were isolated from human primary PBMC from multiple donors using EasySep™ Human NK Cell Isolation Kit (STEMCELL Technologies) and frozen. NK cells were thawed and cultured overnight in medium supplemented with 2 IU/ml of IL-2 (Peprotech) 24 hours before the ADCC assay. […]
as §4
Data from two separately conducted experiments were analyzed to assess potential synergistic activity of tafasitamab and parsaclisib in JVM2 cells. […] Synergy scores were calculated using SynergyFinder 2.0 (https://synergyfinder.fimm.fi). […]

Mec2 cells = assay: Cell proliferation (Cell titer Glo), Mec2; type: cell-based; conditions: no NK cells, 24, 48 and 72 hours
Method: as §1

JVM2 cells [3] = assay: Cell proliferation (Cell titer Glo), JVM2; type: cell-based; conditions: no NK cells, 24, 48 and 72 hours
Method: as §1

Molecule | cell proliferation (RLUs) (Pfeiffer cells) | cell proliferation (RLUs) (WSU-NHL cells) | cell proliferation (RLUs) (SuDHL4 cells) | cell proliferation (RLUs) (SuDHL6 cells) | TGI (%) ([1]; A20 flank tumors in Balb/c mice, antibody 150 mg i.p. once weekly, parsaclisib 3 mg/kg by mouth twice a day, vs vehicle group) | TGD ([1]; approximate days after dosing ceases for mean tumor volume to reach final mean tumor volume of vehicle group) [days] | ADCC activity (Mec1 cells) | ADCC activity (JVM2 cells [2]) | cell proliferation (RLUs) (Mec2 cells) | cell proliferation (RLUs) (JVM2 cells [3])
CCOc1c(C(C)n2nc(C)c3c(N)ncnc32)cc(Cl)c(F)c1C1CNC(=O)C1 (stereo not drawn) [Parsaclisib, 4-{3-[1-(4-amino-3-methyl-1H-pyrazolo[3,4-d]pyrimidin-1-yl)ethyl]-5-chloro-2-ethoxy-6-fluorophenyl}pyrrolidin-2-one] | proliferation was inhibited by the treatment of parsaclisib in time and dose dependent manners | proliferation was inhibited by the treatment of parsaclisib in time and dose dependent manners | showed sensitivity to neither | showed sensitivity to neither | 26.6 | 1.4 | – | – | – | –
Tafasitamab: IgG1-G2/kappa Fc-engineered (S239D, I332E) monoclonal antibody targeting human CD19; heavy chain SEQ ID NO:2, light chain SEQ ID NO:3 (antibody) heavy: EVQLVESGGGLVKPGGSLKLSCAASGYTFTSYVMHWVRQAPGKGLEWIGYINPYNDGTKYNEKFQGRVTISSDKSISTAYMELSSLRSEDTAMYYCARGTYYYGTRVFDYWGQGTLVTVSSASTKGPSVFPLAPSSKSTSGGTAALGCLVKDYFPEPVTVSWNSGALTSGVHTFPAVLQSSGLYSLSSVVTVPSSSLGTQTYICNVNHKPSNTKVDKKVEPKSCDKTHTCPPCPAPELLGGPDVFLFPPKPKDTLMISRTPEVTCVVVDVSHEDPEVQFNWYVDGVEVHNAKTKPREEQFNSTFRVVSVLTVVHQDWLNGKEYKCKVSNKALPAPEEKTISKTKGQPREPQVYTLPPSREEMTKNQVSLTCLVKGFYPSDIAVEWESNGQPENNYKTTPPMLDSDGSFFLYSKLTVDKSRWQQGNVFSCSVMHEALHNHYTQKSLSLSPGK light: DIVMTQSPATLSLSPGERATLSCRSSKSLQNVNGNTYLYWFQQKPGQSPQLLIYRMSNLNSGVPDRFSGSGSGTEFTLTISSLEPEDFAVYYCMQHLEYPITFGAGTKLEIKRTVAAPSVFIFPPSDEQLKSGTASVVCLLNNFYPREAKVQWKVDNALQSGNSQESVTEQDSKDSTYSLSSTLTLSKADYEKHKVYACEVTHQGLSSPVTKSFNRGEC | – | – | showed sensitivity to neither | showed sensitivity to neither | – | – | displayed ADCC activity in a dose dependent manner | displayed ADCC activity in a dose dependent manner | proliferation was inhibited by tafasitamab in time and dose dependent manners | proliferation was inhibited by tafasitamab in time and dose dependent manners
